Assay results reported in ChEMBL document CHEMBL1201862, “PubChem BioAssay data set” (2004).
The source made the active and inactive calls.

What was measured:
[1] = target: T1, Carboxy-terminal domain RNA polymerase II polypeptide A small phosphatase 1 (Homo sapiens, UniProt Q9GZU7); test: CTDSP1 inhibitors, concentration-response, biochemical, absorbance readout, ultra-high-throughput screen actives (AID 540297); assay type: functional
T1 sequence (Q9GZU7 whole entry): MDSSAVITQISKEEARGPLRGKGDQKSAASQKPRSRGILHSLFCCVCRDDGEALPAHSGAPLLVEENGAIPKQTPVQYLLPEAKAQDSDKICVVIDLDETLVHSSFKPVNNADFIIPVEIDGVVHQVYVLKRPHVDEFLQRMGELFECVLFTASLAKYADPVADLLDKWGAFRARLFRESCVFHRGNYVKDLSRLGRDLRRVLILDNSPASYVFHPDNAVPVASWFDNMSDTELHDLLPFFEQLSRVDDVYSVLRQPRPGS

[2] = NIH-3T3 fibroblast cytotoxicity, dose response, cytotoxicity control, cell-based, fluorescence, Alamar Blue, secondary assay (AID 2327); assay type: functional;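 further: NIH-3T3 mouse fibroblasts cultured with fluconazole at 8 µg/mL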
[3] = luciferase reporter signal suppression in cells – H4 neuroglioma cells, luminescence, dose response (AID 1990); assay type: functional, cell-based
[4] = tested on: Streptococcus sp. 'group A'; test: Streptococcus pyogenes SK(-)GAS viability under kanamycin – luminescence, BacTiterGlo, confirmation, counter-screen for streptokinase expression inhibitor project, dose response (AID 1900); assay type: functional, organism-based
cells [5] = assay type: functional, cell-based
[6] = Luminescence Cell-Based Dose Response HTS to Identify Inhibitors of 5'UTR Stem-Loop Driven Prion Protein mRNA Translation in H4 Neuroglioblastoma Cells. [Related pubchem assays: 1827 (Project Summary), 1813 (Primary HTS)]; assay type: functional
Beta-galactosidase = Beta-galactosidase (Escherichia coli, UniProt Q8VNN2); test: PubChem AID 485352; assay type: functional
[7] = alpha-synuclein stem-loop luciferase translation blockers – H4 neuroglioma cells, luminescence, confirmation (AID 1988); assay type: functional, cell-based
[8] = fluconazole-exposed Candida albicans growth modulators – fluorescence, retest, confirmation (AID 2467); assay type: functional, cell-based
[9] = Trypanosoma cruzi growth suppression in host cells – NIH3T3 host cells, beta-gal luminescence, confirmation (AID 2044); assay type: functional, cell-based;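 further: intracellular parasites grown in NIH/3T3 mouse fibroblasts as host cells; luminescent beta-galactosidase reporter signal from transgenic T. cruzi replicating inside host cells; inhibitors lower the luminescence signal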
[10] = target: T2, Type-1 angiotensin II receptor (Homo sapiens, UniProt P30556); test: antagonism of angiotensin II type 1 receptor – cell-based, uHTS hits, selectivity assay for APJ receptor antagonist project, dose response (AID 463214); assay type: functional;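 further: antagonist potency against angiotensin II stimulated AT1 response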
T2 sequence (P30556 whole entry): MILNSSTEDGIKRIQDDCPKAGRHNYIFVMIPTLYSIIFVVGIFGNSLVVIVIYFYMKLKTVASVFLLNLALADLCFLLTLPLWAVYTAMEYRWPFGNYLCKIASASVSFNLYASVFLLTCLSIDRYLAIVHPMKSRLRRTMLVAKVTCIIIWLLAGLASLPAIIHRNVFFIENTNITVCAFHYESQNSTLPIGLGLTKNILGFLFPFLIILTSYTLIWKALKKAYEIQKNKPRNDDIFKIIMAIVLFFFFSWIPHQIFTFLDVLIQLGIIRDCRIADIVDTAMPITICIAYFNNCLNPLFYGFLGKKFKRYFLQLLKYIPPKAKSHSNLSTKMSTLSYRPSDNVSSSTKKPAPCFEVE

cells [11] = assay type: functional, cell-based; remark: listed apart in the source
[12] = NIH3T3 cell viability loss – ATP luminescence, mouse fibroblasts, counter-screen, dose response (AID 2010); assay type: functional, cell-based;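 further: cells exposed to compound for about 90 hours before reading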
Streptococcus = test: GAS UMAA2166 growth inhibition – luminescence, BacTiterGlo, counter-screen for streptokinase expression inhibitor project, dose response (AID 1915); assay type: functional, organism-based;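 further: potency for reduction of bacterial viability or growth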
Cytochrome P450 2C19 = Cytochrome P450 2C19 (Homo sapiens, UniProt P33261); test: Cytochrome panel assay with activity outcomes. Panel member name: p450-cyp2c19 Compounds with AC50 equal or less than 10 uM are considered active; assay type: functional; details: read-out: AC50
Vero [13] = test: cells; assay type: functional, cell-based; details: Chlorocebus sabaeus
Vero [14] = test: cells; assay type: functional; details: Chlorocebus sabaeus
[15] = reduction of Shn3 3'UTR-driven luciferase in osteoblasts – cell-based, Clone20 osteoblasts, firefly luciferase, cherry-picked, dose response (AID 624132); assay type: functional;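 further: firefly luciferase luminescence from reporter carrying the Shn3 3'UTR in osteoblasts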
[16] = loss of viability in HepG2 cells – cell-based, CellTiter-Glo, cherry-picked, cytotoxicity control for Shn3 inhibitor project, dose response (AID 624134); assay type: functional
[17] = non-specific 3'UTR reporter inhibition in Clone20-Shn3RL – cell-based, Renilla luciferase, cherry-picked, counter-screen for Shn3 inhibitor project, dose response (AID 624133); assay type: functional
Cytochrome P450 1A2 = target: T3, Cytochrome P450 1A2 (Homo sapiens, UniProt P05177);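 further: PubChem cytochrome P450 panel assay, CYP1A2 panel member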
T3 sequence (P05177 whole entry): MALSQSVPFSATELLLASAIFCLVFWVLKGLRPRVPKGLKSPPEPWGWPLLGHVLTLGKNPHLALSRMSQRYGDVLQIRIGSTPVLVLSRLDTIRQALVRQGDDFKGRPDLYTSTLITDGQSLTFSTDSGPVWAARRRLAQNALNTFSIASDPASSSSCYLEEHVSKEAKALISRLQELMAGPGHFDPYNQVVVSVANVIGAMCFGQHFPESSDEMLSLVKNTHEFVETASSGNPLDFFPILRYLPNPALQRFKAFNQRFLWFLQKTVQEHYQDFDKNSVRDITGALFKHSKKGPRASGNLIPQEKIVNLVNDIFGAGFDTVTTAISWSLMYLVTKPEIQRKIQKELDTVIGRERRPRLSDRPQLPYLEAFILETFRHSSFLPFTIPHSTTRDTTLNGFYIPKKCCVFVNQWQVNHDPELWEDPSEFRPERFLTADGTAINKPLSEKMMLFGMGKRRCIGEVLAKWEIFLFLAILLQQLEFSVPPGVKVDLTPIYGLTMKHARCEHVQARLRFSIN

Cytochrome P450 2C9 = Cytochrome P450 2C9 (Homo sapiens, UniProt P11712)
Cytochrome P450 3A4 = Cytochrome P450 3A4 (Homo sapiens, UniProt P08684);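 further: CYP3A4 tested as one member of a cytochrome P450 panel screen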
[18] = target: T4, High affinity choline transporter 1 (Homo sapiens, UniProt Q9GZV3); test: human choline transporter blockers, potency – cell-based, 5-point CRC, membrane potential dye, dose response (AID 504840); assay type: functional
T4 sequence (Q9GZV3 whole entry): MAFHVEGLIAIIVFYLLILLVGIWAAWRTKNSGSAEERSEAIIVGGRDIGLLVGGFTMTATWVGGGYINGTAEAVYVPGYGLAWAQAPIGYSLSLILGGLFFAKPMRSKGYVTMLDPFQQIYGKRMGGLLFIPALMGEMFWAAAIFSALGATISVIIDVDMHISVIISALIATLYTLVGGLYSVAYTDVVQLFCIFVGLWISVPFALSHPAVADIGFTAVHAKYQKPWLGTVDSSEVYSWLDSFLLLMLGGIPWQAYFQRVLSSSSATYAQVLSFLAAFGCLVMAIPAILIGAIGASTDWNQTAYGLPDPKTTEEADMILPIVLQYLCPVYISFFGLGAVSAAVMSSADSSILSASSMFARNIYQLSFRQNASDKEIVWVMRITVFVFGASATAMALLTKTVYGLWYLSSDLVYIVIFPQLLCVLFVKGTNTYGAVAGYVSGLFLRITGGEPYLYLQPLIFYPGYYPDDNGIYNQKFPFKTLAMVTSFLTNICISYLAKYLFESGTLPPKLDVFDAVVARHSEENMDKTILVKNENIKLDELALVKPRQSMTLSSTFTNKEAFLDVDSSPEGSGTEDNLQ

Chain of Cytochrome P450 2C19 (P33261 whole entry): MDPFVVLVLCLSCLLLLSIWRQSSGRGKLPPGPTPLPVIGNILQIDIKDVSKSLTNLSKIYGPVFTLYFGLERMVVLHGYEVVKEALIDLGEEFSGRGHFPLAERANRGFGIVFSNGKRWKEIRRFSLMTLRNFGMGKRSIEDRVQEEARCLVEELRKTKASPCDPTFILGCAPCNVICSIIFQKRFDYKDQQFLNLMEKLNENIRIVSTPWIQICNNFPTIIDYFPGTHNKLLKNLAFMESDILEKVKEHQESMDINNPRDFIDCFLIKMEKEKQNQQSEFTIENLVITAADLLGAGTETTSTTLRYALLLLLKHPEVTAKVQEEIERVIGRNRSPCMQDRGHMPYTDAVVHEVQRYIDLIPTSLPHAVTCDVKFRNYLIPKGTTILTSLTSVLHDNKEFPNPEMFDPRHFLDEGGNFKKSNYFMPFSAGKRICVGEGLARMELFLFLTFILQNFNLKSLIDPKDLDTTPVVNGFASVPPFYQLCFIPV
Chain of Beta-galactosidase (Q8VNN2 whole entry): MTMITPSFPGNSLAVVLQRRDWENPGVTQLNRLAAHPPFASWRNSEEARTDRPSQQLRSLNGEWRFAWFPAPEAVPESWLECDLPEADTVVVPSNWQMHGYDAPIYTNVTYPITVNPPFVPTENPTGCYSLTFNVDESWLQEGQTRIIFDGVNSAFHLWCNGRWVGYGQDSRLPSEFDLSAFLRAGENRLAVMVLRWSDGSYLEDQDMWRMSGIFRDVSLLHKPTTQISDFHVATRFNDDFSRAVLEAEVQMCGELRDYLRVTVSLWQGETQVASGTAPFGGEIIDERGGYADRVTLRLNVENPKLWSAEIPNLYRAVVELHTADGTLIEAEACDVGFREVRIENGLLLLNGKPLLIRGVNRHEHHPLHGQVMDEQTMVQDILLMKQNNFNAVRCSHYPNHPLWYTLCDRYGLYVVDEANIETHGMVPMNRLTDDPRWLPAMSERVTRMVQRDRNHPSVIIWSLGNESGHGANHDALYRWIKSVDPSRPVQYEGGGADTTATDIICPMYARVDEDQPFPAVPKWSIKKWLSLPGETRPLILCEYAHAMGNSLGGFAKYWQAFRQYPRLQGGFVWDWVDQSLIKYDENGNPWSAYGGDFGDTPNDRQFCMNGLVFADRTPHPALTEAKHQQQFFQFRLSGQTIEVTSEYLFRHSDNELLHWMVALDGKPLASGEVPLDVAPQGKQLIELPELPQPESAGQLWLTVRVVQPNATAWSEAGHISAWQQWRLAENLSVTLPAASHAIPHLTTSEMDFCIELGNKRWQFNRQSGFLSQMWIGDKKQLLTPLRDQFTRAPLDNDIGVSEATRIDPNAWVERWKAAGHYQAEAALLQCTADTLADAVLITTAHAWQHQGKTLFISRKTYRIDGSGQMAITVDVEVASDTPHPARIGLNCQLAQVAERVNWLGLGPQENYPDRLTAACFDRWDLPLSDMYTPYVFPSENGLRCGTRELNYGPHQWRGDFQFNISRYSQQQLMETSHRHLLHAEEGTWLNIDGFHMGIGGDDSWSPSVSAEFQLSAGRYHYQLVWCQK
Chain of Cytochrome P450 3A4 (P08684 whole entry): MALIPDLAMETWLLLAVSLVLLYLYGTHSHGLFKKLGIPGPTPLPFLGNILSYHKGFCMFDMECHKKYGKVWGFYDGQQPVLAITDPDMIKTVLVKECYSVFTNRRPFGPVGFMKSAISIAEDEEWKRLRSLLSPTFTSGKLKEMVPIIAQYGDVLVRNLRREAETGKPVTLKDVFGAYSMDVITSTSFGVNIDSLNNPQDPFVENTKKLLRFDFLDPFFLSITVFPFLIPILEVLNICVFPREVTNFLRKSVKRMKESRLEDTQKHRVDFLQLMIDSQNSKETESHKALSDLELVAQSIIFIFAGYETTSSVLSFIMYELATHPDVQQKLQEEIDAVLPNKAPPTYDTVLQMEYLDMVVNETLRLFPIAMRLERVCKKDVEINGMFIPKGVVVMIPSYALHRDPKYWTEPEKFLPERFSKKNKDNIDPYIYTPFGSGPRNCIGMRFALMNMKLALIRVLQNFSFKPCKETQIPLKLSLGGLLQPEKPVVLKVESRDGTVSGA
Chain of Cytochrome P450 2C9 (P11712 whole entry): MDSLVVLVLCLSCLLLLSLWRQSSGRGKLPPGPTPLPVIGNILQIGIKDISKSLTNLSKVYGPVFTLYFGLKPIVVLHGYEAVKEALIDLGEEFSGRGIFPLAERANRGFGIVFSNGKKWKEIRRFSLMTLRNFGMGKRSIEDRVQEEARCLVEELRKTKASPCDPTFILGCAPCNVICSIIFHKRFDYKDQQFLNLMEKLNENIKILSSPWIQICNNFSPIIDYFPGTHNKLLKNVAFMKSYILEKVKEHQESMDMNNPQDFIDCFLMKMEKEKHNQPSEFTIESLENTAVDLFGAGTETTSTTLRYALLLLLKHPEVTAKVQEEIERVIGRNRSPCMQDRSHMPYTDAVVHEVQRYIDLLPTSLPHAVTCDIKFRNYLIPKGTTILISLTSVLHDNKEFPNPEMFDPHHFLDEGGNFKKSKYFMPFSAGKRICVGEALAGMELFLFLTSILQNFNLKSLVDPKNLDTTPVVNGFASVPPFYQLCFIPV

C=CCn1c(COc2ccc(F)cc2)nnc1SCC(=O)NC(=O)NCc1ccco1
active: IC50 [1] 15.9 µM

Cc1nc(-n2nc3c(c2O)CCCC3)[nH]c(=O)c1Cc1ccccc1
> 350 µM (not active): EC50 (cells [11])
inconclusive: EC50 [2] > 150 µM | AC50 (Cytochrome P450 2C19) 25.1 µM | AC50 (Cytochrome P450 1A2) 14.1 µM | AC50 (Cytochrome P450 2C9) 4.47 µM | AC50 (Cytochrome P450 3A4)
active: EC50 [3] 8.07 µM | EC50 [4] 1.14 µM | EC50 (cells [5]) 16.8 µM | EC50 [6] 14.9 µM | EC50 [7] 6.76 µM | EC50 [8] 0.554 µM | EC50 [9] 1.17 µM | IC50 [10] 14.2 µM | EC50 [12] 1.06 µM | EC50 (Streptococcus) 4.47 µM | IC50 (Vero [13]) > 25 µM | CC50 (Vero [14]) 9.47 µM | AC50 [15] 4.44 µM | AC50 [16] 57 µM | AC50 [17] 2.37 µM
inactive: EC50 (Beta-galactosidase) > 40 µM

COC(=O)C1=COC(OC2OC(CO)C(O)C(O)C2O)C2C1C=CC2(O)CO (stereo not given)
active: IC50 [1] 3.19 µM

O=C1C2CCCN2C(c2cccs2)N1c1ccc(Cl)cc1 (stereo not given)
active: EC50 [3] 45.2 µM | EC50 [6] 17 µM | EC50 [7] 49.9 µM | IC50 (Vero [13]) 17.1 µM

O=C(NNC(=O)c1ccc(NC(=O)c2ccccc2)cc1)Nc1ccccc1
active: IC50 [1] 7.38 µM

Cc1cc(C)nc(SCc2cc(=O)c(OC(=O)c3ccco3)co2)n1
active: IC50 [18] 12.3 µM
